This is an account of results in publication PMC9116245, “New 1,2,3-triazole linked ciprofloxacin-chalcones induce DNA damage by inhibiting human topoisomerase I& II and tubulin polymerization” (Journal of Enzyme Inhibition and Medicinal Chemistry, 2022).

Assay [1] relates to tubulin polymerisation. Description: Tubulin immunofluorescence microscopy in HCT116 cells. Format: cell-based, human. As to conditions: HCT116, IC50 of compound, 36 h. The method, then: (§1) The process of tubulin polymerisation in the cells is important for the completion of mitosis and is targeted for cancer treatment. It has been reported that the suppression of tubulin polymerisation will arrest the cells at the G2/M and it eventually leads to cell death. To test the tubulin-disruptive effect of the CP hybrids, HCT116 cells were analysed by immunocytochemistry. HCT116 cells were incubated for 36 h with IC50 of the CP hybrids (4a, 4b, 4e, 4i, and 4j), nocodazole (a well-known tubulin polymerisation inhibitor, as a positive control), DMSO or Paclitaxel (a well-known tubulin polymerisation inducer, as a negative control), and tubulin was visualised by immunofluorescence microscopy. An antibody for α-tubulin was used. […] Moreover, a Western blot was performed to verify the tubulin polymerisation inhibition ability of the synthesised compounds (Figure 8(B)). The level of polymerised tubulin was decreased in HCT116 cells treated with IC50 values of CP hybrids 4a, 4b, 4e, 4i, 4j, or nocodazole.
(§2) HCT116 cells were cultured and treated with the IC50 of the potent compounds (4a, 4b, 4e, 4i, and 4j) or DMSO (control), fixed, permeabilized, and they were incubated with either γH2AX or α-tubulin antibody as the reported procedure in the literature. Confocal images were captured using a Confocal Microscope with a 63X objective. All images were processed using ImageJ software. See Supplementary Appendix A.

Assay [2] deals with polymerised tubulin. Description: Western blot of polymerised tubulin in HCT116 cells. It is filed as cell-based, human. As to conditions: HCT116, IC50 values of compounds. The method, then: as §1
(§3) Western blotting analysis for HCT116 cells was performed according to the reported procedure in the literature[77–79] to determine the effects of CP hybrids; 4a, 4b, 4e, 4i, and 4j on the expression of polymerised tubulin, γH2AX, p-ATR, p-CHK1, and p-Cdc25C by using the appropriate antibody. See Supplementary Appendix A.

Assay [3] concerns γH2AX. Description: γH2AX immunofluorescence in HCT116 cells. It is filed as cell-based, human. As to conditions: HCT116, IC50 of compound.
From the text: (§4) DNA damage is a major reason for inhibiting proliferation and inducing cytotoxicity in cancer cells as well as the main downstream cascade for the Topo-I, Top-II, and tubulin polymerisation inhibition. The phosphorylation of the histone H2AX always occurs after DNA damage forming double-stranded breaks (DSBs). Therefore, we tested the capability of the potent prepared compounds to trigger DNA double strand breaks through detection of the phosphorylation of γH2AX using two different techniques, Immunofluorescence, and western blotting.
as §2

In assay [4] the target is T1, Topo IIα (Homo sapiens, UniProt P11388).
T1 construct: purchased Topogen Inc. TG1001
T1 sequence (P11388 whole entry): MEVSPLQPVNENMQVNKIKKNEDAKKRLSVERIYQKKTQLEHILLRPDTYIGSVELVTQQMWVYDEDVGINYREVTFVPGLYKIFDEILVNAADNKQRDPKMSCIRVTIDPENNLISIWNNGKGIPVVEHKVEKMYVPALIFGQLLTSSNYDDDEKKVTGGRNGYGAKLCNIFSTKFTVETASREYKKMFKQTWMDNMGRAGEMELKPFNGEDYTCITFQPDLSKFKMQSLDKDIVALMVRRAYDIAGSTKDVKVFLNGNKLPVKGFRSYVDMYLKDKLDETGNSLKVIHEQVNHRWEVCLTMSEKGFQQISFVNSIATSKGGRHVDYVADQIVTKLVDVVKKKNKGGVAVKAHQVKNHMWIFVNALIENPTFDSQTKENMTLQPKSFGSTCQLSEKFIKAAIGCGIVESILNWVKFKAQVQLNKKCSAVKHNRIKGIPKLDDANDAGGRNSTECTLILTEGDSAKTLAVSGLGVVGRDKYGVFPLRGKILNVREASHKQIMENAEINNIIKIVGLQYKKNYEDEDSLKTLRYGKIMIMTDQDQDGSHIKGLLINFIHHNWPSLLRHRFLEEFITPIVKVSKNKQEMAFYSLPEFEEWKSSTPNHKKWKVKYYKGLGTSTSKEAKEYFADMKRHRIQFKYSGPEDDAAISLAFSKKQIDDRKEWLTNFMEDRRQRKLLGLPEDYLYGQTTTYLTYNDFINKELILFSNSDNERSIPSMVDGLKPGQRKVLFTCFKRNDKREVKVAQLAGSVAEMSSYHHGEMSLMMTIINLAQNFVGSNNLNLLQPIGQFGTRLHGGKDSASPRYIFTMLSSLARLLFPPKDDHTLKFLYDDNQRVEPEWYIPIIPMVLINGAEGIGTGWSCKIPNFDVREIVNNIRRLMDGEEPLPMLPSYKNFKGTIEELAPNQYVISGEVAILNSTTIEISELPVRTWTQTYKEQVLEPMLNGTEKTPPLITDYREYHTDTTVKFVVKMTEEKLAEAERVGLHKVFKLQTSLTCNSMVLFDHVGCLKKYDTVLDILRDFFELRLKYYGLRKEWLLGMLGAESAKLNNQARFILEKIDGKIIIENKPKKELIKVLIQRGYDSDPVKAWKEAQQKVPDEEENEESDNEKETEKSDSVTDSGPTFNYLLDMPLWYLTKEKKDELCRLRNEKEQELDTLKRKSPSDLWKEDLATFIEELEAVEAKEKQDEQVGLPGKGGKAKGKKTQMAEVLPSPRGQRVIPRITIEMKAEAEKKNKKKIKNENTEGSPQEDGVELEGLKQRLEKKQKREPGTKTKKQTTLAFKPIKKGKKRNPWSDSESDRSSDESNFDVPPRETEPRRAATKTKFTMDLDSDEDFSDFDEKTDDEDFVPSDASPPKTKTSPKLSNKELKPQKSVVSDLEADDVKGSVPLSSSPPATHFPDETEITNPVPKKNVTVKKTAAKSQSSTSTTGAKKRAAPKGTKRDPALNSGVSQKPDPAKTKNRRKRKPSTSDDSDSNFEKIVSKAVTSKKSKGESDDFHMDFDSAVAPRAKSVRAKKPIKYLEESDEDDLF
Description: Human Topoisomerase II assay kit (TG1001). Format: biochemical. As to conditions: 10 µM. The method, then:
Second, the inhibitory activity of Topo IIα was evaluated for compounds 4a, 4b, 4e, 4i, and 4j utilising Human Topoisomerase II assay kit (TG1001, Topogen Inc.). […] The above results are compatible with our design of these hybrids as Top-II inhibitors.
The inhibitory activity of the selected ciprofloxacin hybrids on human Top-II was tested using a Human Topoisomerase II assay kit (TG1001, Topogen Inc.). In this assay, 1% agarose gel was used, and the compounds were tested at two different concentrations, 10 and 100 µM. Also, etoposide was used as a positive control in this experiment. The assay was performed according to the manufacturer’s protocol. The image of the electrophoretic gel was captured using an imaging system (iBright-CL1500, Thermo Fisher Scientific).

Assay [5] concerns HCT116 cells. The assay can be described thus: Analysis of cell cycle distribution. It is filed as cell-based, human. As to conditions: HCT116, different concentrations, 24 h. From the text: Generally, the mammalian cells counteract the DNA damage by different mechanisms including the cell cycle arrest to allow the cell to repair the damage. There are 2 checkpoints that control DNA damage. The first checkpoint is at the G1/S transition while the other checkpoint is at the G2/M transition. To cover the mechanisms of the synthesised compounds in inhibiting cell proliferation, we analysed the distribution of cell cycle of HCT116 cells following the treatment with different doses of 4a, 4b, 4e, 4i, and 4j. […] See Supplementary Appendix A.

For assay [6], the system named is ATR/CHK1/Cdc25C pathway. The assay can be described thus: Western blot of ATR-Chk1-Cdc25C cascade in HCT116 cells. Format: cell-based, human. As for the experimental part:
To clarify the molecular mechanism responsible for inducing G2/M phase arrest in HCT116 following the treatment with the synthesised compounds, the signalling in the checkpoint pathway that regulates the G2/M transition was investigated. The mammalian cells respond to the DNA damage through 2 different kinase-signalling cascades (ATR-Chk1 and ATM-Chk2). First, the effect of the synthesised compounds on ATM and ATR phosphorylation was tested. […] Then, the phosphorylation of downstream effectors of ATM/ATR, phospho-Chk1-S269, and phospho-Chk2-T68 kinases was explored. […] It is well known that in vitro activation of Chk1 phosphorylates Cdc25C on serine-216. Therefore, the impact of the synthesised compounds on the Cdc25C phosphorylation at Ser-216 was investigated.
as §3
For orientation: In western blotting, separated proteins are transferred to a membrane and probed.

Assay [7] has as its target T2, recombinant human DNA topoisomerase I (Homo sapiens, UniProt P11387).
T2 construct: purchased Sigma-Aldrich
T2 sequence (P11387 1-765): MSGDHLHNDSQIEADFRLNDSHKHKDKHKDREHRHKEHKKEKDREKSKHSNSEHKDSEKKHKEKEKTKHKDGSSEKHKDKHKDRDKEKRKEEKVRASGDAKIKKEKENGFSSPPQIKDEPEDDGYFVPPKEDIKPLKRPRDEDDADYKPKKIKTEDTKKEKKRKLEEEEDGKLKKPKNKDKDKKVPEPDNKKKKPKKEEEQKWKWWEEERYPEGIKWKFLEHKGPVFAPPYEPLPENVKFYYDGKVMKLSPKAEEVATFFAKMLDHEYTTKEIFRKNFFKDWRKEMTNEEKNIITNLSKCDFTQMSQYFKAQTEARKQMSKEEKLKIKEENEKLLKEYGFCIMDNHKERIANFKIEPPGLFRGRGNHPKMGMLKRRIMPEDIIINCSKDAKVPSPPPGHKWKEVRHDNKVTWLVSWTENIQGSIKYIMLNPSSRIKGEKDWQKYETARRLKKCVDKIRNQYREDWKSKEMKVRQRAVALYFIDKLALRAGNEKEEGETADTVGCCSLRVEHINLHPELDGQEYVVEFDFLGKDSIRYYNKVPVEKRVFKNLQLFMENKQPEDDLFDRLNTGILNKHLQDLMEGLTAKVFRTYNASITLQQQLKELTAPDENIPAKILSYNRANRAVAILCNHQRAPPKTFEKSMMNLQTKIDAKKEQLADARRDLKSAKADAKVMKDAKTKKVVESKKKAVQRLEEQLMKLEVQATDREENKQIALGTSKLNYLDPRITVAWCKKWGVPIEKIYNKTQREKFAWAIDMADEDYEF
Description: Human DNA Topoisomerase I Assay Kit (ProFoldin). Format: biochemical. As to conditions: compounds at their IC50 values, reference camptothecin.

Assay [8] has as its system γH2AX. The assay can be described thus: γH2AX western blotting in HCT116 cells. Format: cell-based, human. As to conditions: HCT116, IC50 of compound, versus control cells.
From the text: as §4, §3

In the case of `O=C(/C=C/c1ccc(F)cc1)c1ccc(-n2cc(CN3CCN(c4cc5c(cc4F)c(=O)c(C(=O)O)cn5C4CC4)CC3)nn2)cc1` [Compound 4e, (E)-1-cyclopropyl-6-fluoro-7–(4-((1–(4-(3-(4-fluorophenyl)acryloyl)phenyl)-1H-1,2,3-triazol-4-yl)methyl)piperazin-1-yl)-4-oxo-1,4-dihydroquinoline-3-carboxylic acid], in assay [1], the “tubulin polymerisation, morphological changes by immunofluorescence” value was “significant tubulin polymerisation inhibition”. Besides, in assay [2], the “level of polymerised tubulin, Western blot” value was “decreased”. Moreover, the γH2AX foci formation result in assay [3] is reported as “induced γH2AX foci formation”. The Topo-II inhibitory activity result in assay [4] was “stronger inhibitory activity than 4b, 4i, and ETO”. Also, the cell cycle distribution entry in assay [5] was “induced G2/M phase cell cycle arrest in a concentration-dependent manner”. Also, the “expressions of p-ATR, p-CHK1, and p-Cdc25C, Western blot” value in assay [6] is given as “increased”. In addition, in assay [7], the “Top-I inhibitory activity, enzyme assay kit” value is reported as “comparable to camptothecin”. Besides, the “γH2AX protein expression, western blotting” value in assay [8] is “increases in the γH2AX protein expression”.

Regarding `COc1cc(/C=C/C(=O)c2ccc(-n3cc(CN4CCN(c5cc6c(cc5F)c(=O)c(C(=O)O)cn6C5CC5)CC4)nn3)cc2)cc(OC)c1OC` [Compound 4j, (E)-1-cyclopropyl-6-fluoro-4-oxo-7–(4-((1–(4-(3-(3,4,5-trimethoxyphenyl)acryloyl)phenyl)-1H-1,2,3-triazol-4-yl)methyl)piperazin-1-yl)-1,4-dihydroquinoline-3-carboxylic acid], the “tubulin polymerisation, morphological changes by immunofluorescence” value in assay [1] is given as “significant tubulin polymerisation inhibition”. Also, the “level of polymerised tubulin, Western blot” value in assay [2] was “decreased”. In addition, the γH2AX foci formation entry in assay [3] was “induced γH2AX foci formation”. Moreover, in assay [4], the Topo-II inhibitory activity entry is “stronger inhibitory activity than 4b, 4i, and ETO”. Besides, the cell cycle distribution result in assay [5] is on record as “induced G2/M phase cell cycle arrest in a concentration-dependent manner”. Besides, in assay [6], the “expressions of p-ATR, p-CHK1, and p-Cdc25C, Western blot” value is “increased”. Moreover, in assay [7], the “Top-I inhibitory activity, enzyme assay kit” value was “less potent Top-1 inhibitor”. Besides, the “γH2AX protein expression, western blotting” value in assay [8] was “increases in the γH2AX protein expression”.
